From patent publication US6465204B1, “Amidase” (Diversa Corporation, priority 1996, dated 2002)

B1: enzyme: purified thermostable amidase derived from Thermococcus GU5L5, 622 amino acid residues (SEQ ID NO:2) (protein)
chain: MTGIEWNHETFSKFAYLGDPRIRGNLIAYTLTKANMKDNKYESTVVVEDLETGSRRFIENASMPRISPDGRKLAFTCFNEEKKETEIWVADIQTLSAKKVLSTKNVRSMQWNDDSRRLLVVGFKRRDDEDFVFDDDVPVWFDNMGFFDGEKTTFWVLDTEAEEIIEQFEKPRFSSGLWHGDAIVVNVPHREGSKPALFKFYDIVLWKDGEEEKLFERVSFEAVDSDGKRILLRGKKKKRFISEHDWLYLWDGELKPIYEGPLDVWEAKLTEGKVYFLTPDAGRVNLWLWDGKAERVVTGDHWIYGLDVSDGKALLLIMTATRIGELYLYDGELKQVTEYNGPIFRKLKTFEPRHFRFKSKDLEIDGWYLRPEVKEEKAPVIVFVHGGPKGMYGHRFVYEMQLMASKGYYVVFVNPRGSDGYSEDFALRVLERTGLEDFEDIMNGIEEFFKLEPQADRERVGITGISYGGFMTNWALTQSDLFKAGISENGISYWLTSYAFSDIGLWYDVEVIGPNPLENENFRKLSPLFYAQNVKAPILLIHSLEDYRCPLDQSLMFYNVLKDMGKEAYIAIFKRGAHGHSVRGSPRHRPKRYRLFIEFFERKLKKYEEGFEVEKILKGNGN

Legend:
[1] = tested on: Thermococcus GU5L5 amidase; assay: Activity and enantioselectivity of the amidase in increasing concentrations of DMF; format: biochemical; settings: for Initial Rate: RT, cell lysate, pH 7.5 Hepes
Protocol: The activity and enantioselectivity of the amidase in increasing concentrations of dimethyl formamide (DMF) was tested as follows: to each well of a microtiter plate was added 30 μL of 1 mM CBZ-L-arg-AMC or CBZ-D-arg-AMC in DMF, 30 μL of cell lysate containing the amidase activity, and 240 μL of a variable mixture of DMF:pH 7.5, 50 mM Hepes buffer. The reactiosn were incubated at RT for 1 hour and the fluorescence measured at 1 minute intervals.

[2] = tested on: Thermococcus GU5L5 amidase; assay: Substrate specificity of the amidase (fluorogenic substrates); format: biochemical; settings: substrate 100 μM, 1 hour at 70° C.; ratio between substrates
Protocol: Fifty μL of the ‘600 μM stock solution’ was added to each of the wells of a white condensed plate using the Biomek to yield a final concentration of substrate of ˜100 μM. The fluorescence values were recorded (excitation=400 nm, emission=505 nm) on a plate reading fluorometer immediately after addition of the substrate. The plate was incubated at 70° C. for 60 min. and the fluorescence values were recorded again. The initial and final fluorescence values were subtracted to determine if an active clone was present by an increase in fluorescence over the majority of the other wells.
The excitation and emission wavelengths for the 7-amido-4-methylcoumarins were 380 and 460 nm respectively, and 326 and 450 for the methylumbelliferone.

[3] = Temperature tolerance of the enzyme; design: species or system Thermococcus GU5L5
[4] = Organic solvent sensitivity: activity of the amidase in increasing concentrations of DMSO; format: biochemical, Thermococcus GU5L5
Protocol: The activity of the amidase in increasing concentrations of dimethyl sulfoxide (DMSO) was tested as follows: to each well of a microtiter plate was added 10 μL of 3 mM CBZ-L-phe-AMC in DMSO, 25 μL of cell lysate containing the amidase activity, and 250 μL of a variable mixture of DMSO:pH 7.5, 50 mM Hepes buffer. The reactions were heated for 1 hour at 70° C. and the fluorescence measured. […] The filled and open boxes represent individual assays.

| Molecule | Initial Rate ([1]; DMF 0.4%) [Fl.U./min] | Initial Rate ([1]; DMF 10%) [Fl.U./min] | Initial Rate ([1]; DMF 20%) [Fl.U./min] | Initial Rate ([1]; DMF 30%) [Fl.U./min] | Initial Rate ([1]; DMF 40%) [Fl.U./min] | Initial Rate ([1]; DMF 50%) [Fl.U./min] | Initial Rate ([1]; DMF 60%) [Fl.U./min] | Initial Rate ([1]; DMF 75%) [Fl.U./min] | Initial Rate ([1]; DMF 90%) [Fl.U./min] | relative activity of the amidase [2] | selectivity for the L enantiomer of the derivatized amino acid substrate ([1]; CBZ-L-arg-AMC versus CBZ-D-arg-AMC) | temperature tolerated [3] | concentration of organic solvent tolerated [4] [% DMSO] |
| --- | --- | --- | --- | --- | --- | --- | --- | --- | --- | --- | --- | --- | --- |
| Cc1cc(=O)oc2cc(NC(=O)[C@@H](CCCNC(=N)N)NC(=O)OCc3ccccc3)ccc12 [CBZ-D-arg-AMC, Nα-carbonylbenzyloxy-D-arginine-7-amido-4-methylcoumarin] | 0.3 | 10.1 | 4.6 | 1.8 | 0.9 | 1.2 | 1.4 | 0.1 | 0.1 | – | – | – | – |
| Cc1cc(=O)oc2cc(NC(=O)[C@H](Cc3ccccc3)NC(=O)OCc3ccccc3)ccc12 [CBZ-L-phe-AMC, Nα-carbonylbenzyloxy-L-phenylalanine-7-amido4-methylcoumarin] | – | – | – | – | – | – | – | – | – | 3 | – | – | – |
| CSCC[C@H](NC(=O)OCc1ccccc1)C(=O)Nc1ccc2c(C)cc(=O)oc2c1 [CBZ-L-met-AMC, Nα-carbonylbenzyloxy-L-methionine-7-amido-4-methylcoumarin] | – | – | – | – | – | – | – | – | – | 1 | – | – | – |
| Cc1cc(=O)oc2cc(NC(=O)[C@H](CCCNC(=N)N)NC(=O)OCc3ccccc3)ccc12 [CBZ-L-arg-AMC, Nα-carbonylbenzyloxy-L-arginine-7-amido-4-methylcoumarin] | 654 | 2548 | 1451 | 541 | 345 | 303 | 190 | 81 | 11 | 3 | – | – | – |
| B1 | – | – | – | – | – | – | – | – | – | – | excellent selectivity for the L | at least 70 °C | > 40 |
